# Experiments:
# [1] = test system: herpes simplex virus; experiment: Informal trials: topical ivermectin lotion in patients with herpes simplex; format: in vivo, human
# Text: The composition of the present invention described above is applied to the affected area of patients having herpes simplex, herpes zoster, or chicken-pox. Preferably, the lotion, cream, gel, or ointment can be applied on the affected area with gentle rubbing to help penetration of the macrocyclic lactone compound into the skin. Moreover, when lotion, cream, or hydrogel is used, preferably the affected area is dampened by water first, then a drop of lotion, cream, or hydrogel is rubbed on the affected area by finger(s). […] Moreover, if blisters are already formed at the affected area, at the time of applying the topical composition the blisters can be broken using a needle, then the composition is rubbed in the lesion.
# (§1) The composition can be applied topically to the affected area one or more times a day, typically one to two times a day, when a herpes simplex episode occurs or during the course of shingles or chicken box. When the pain is severe, the composition can be applied more frequently to help alleviate the symptoms. Moreover, the composition can also be integrated into or applied on medical dressing, dermal patch, or lint free wipes, which can be applied to the affected area as needed, to provide a more extended exposure to the medication.
# The most impressive results are seen with early recognition and treatment. […] In medicine, a prodrome is an early symptom (or set of symptoms) that might indicate the start of a disease before specific symptoms occur. Prodromes may be non-specific symptoms or, in some instances, may clearly indicate a particular disease. In herpes simplex there is a prodrome consisting of a change in sensation, typically slight numbness or a faint tingling sensation with vague swelling or induration.
# (§2) Operating with informed consent of individuals, individuals were treated with the topical composition and the method of the present invention for treating herpes virus infection, more particularly herpes simplex and herpes zoster or shingles, as described in Examples 3 to 8.
# [2] = test system: varicella zoster virus; experiment: Informal trials: topical ivermectin lotion in patients with herpes zoster (shingles); format: in vivo, human
# Text: For treating herpes zoster, preferably the surface of the affected area of the skin is gently scratched prior to rubbing the composition containing the macrocyclic lactone compound on the area. Gentle scratching abrades the stratumcorium, which allows better penetration of the macrocyclic lactone compound into the skin. The stratum corneum is the outermost layer of the epidermis, composed of large, polyhedral, plate-like envelopes filled with keratin, which is made up of dead cells that have migrated up from the stratum granulosum. As these dead cells slough off on the surface, they are continuously replaced by new cells from the stratum germinativum. Alternatively, the composition can be dispensed on the affected area, and then scratched into the area. Scratching with cleaned finger nails or a sterilized scraping tool, for example small sharp curette or a needle point, can be used.
# as §1
# For herpes zoster, at the early onset the patient develops a patch of linear area of paresthesia, and hyperesthesia (burning, stinging, and pain). At this time, the composition containing ivermectin should be topically applied promptly and scratched into the skin. Concurrently, an oral antiviral medication can be used promptly.
# as §2
# [3] = test system: herpes simplex virus; conditions: cited from earlier work
# [4] = Side effects and tolerability observed in treated patients; format: in vivo, human; conditions: Example 5: person, high dose
# Description: Operating with informed consent of individuals, individuals were treated with the topical composition and the method of the present invention for treating herpes virus infection, more particularly herpes simplex and herpes zoster or shingles, as described in Examples 3 to 8. In the above described informal trials, no adverse side effects or contra-indications were observed among the patients. The patients had no complaints of skin irritation, sensitivity or discomfort originating from the treatment.
# [5] = topical composition, ivermectin concentration as low as 0.075%
molecule,measurement,setting,value
ivermectin,Effectiveness in treating herpes simplex,[1]; [5],effective
same,Effectiveness in treating herpes zoster,[2]; [5],effective
same,Effect of combined systematic and topical treatments on severity of herpes zoster,[2]; topical ivermectin composition with concurrent oral antiviral medication,synergistic effect in decreasing the severity
"CC(=O)OCC(CCn1cnc2cnc(N)nc21)COC(C)=O [Famvir®, famciclovir]",Response of severe pain with burning and tingling to prior therapy,"[2]; Example 6: person, high dose",had not responded
"Nc1nc2c(ncn2COCCO)c(=O)[nH]1 [Zovirax®, acyclovir]","Benefit of prior therapy, orally","[1]; Example 3: patient history, oral",with benefit
same,"Benefit of prior therapy, topically","[1]; Example 3: patient history, topical",without benefit
O=c1[nH]c(=O)n([C@H]2C[C@H](O)[C@@H](CO)O2)cc1I [idoxuridine],Pain duration,"[3]; topical, reported in a study",reduced pain duration
same,Time to loss of crust,"[3]; topical, reported in a study",decreased time to loss of crust
Nc1nc2c(ncn2CCC(CO)CO)c(=O)[nH]1 [penciclovir],"Duration of lesions, pain, and viral shedding",[3]; cream applied early and late in course of HSV infection (Hamuy et al. 1998),"decreased the duration of lesions, pain, and viral shedding"
"CC(C)[C@H](N)C(=O)OCCOCn1cnc2c(=O)[nH]c(N)nc21 [Valtrex®, valacyclovir]",Satisfaction with prior therapy,"[1]; Example 5: person, high dose",without total satisfaction
same,Side effects of prior therapy,[4],"cardiac irregularities, especially bigeminy and trigeminy"

# From patent US8901091B2, “Method of treating herpes virus infection using macrocyclic lactone compound” (Galderma S.A., priority 2010, dated 2014)
